Assay results reported in patent US8350027B2, “Dual-acting pyrazole antihypertensive agents” (Theravance, Inc., priority 2009, dated 2013).

Assays:
NEP enzyme = target: T1, NEP enzyme (Homo sapiens, UniProt P08473); assay: NEP enzyme inhibition assay (fluorogenic peptide substrate); assay type: biochemical; settings: values given as lower bounds; * = prodrugs, may not exhibit NEP activity in an in vitro assay; read-out: NEP pIC50 (converted)
T1 construct: purchased R&D Systems, Minneapolis, Minn; 1182-ZN
T1 sequence (P08473 52-750 limits assumed): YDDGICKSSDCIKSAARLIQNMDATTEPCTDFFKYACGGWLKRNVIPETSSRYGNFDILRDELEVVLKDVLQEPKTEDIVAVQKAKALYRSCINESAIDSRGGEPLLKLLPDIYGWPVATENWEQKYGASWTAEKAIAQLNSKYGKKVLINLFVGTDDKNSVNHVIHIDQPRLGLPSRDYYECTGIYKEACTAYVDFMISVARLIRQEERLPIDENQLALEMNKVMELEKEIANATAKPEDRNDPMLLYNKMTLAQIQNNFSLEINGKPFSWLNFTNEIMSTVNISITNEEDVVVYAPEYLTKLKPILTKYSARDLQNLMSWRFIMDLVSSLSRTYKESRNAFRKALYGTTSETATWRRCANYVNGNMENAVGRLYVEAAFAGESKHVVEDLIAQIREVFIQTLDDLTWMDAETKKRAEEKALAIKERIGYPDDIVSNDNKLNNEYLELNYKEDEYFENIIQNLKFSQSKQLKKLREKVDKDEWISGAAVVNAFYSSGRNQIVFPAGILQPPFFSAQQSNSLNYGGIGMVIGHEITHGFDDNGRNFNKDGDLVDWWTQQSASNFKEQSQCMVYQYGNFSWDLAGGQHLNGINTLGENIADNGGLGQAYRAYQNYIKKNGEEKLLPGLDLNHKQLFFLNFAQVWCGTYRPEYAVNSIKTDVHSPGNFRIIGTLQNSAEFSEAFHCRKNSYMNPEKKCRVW
How it was run: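 Recombinant human NEP was run with Mca-BK2 (10 μM) at room temperature in Tris buffer with 1 μM Zn. Compounds (10 μM–20 pM, 12 points) were pre-equilibrated 10 min, then reacted 20 min and acid-stopped. Fluorescence ex 320/em 405 nm, one-site competition fit gives pIC50. Thiol compounds may be pre-treated with 400 μM TCEP.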

human AT1 receptor = target: T2, human AT1 receptor (Homo sapiens, UniProt P30556); assay: AT1 radioligand binding assay (displacement of [Eu]AngII); settings: membranes of CHO-K1 cells expressing cloned human AT1 receptor; values given as lower bounds; read-out: AT1 pKi (converted)
T2 construct: expressed in transfected cells; host or cells: CHO-K1
T2 sequence (P30556 1-359): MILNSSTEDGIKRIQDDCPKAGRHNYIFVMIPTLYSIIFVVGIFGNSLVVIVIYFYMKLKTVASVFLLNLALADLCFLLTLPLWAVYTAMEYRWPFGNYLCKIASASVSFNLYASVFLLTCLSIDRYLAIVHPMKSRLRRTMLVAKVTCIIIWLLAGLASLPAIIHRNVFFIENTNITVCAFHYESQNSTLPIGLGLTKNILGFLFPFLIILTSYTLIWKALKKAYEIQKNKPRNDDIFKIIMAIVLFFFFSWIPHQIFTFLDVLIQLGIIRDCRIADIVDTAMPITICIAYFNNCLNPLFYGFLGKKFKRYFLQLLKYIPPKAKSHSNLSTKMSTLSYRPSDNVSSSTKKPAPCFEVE
How it was run: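 Membranes from CHO-K1 cells stably expressing cloned human AT1, 0.2 μg protein, in 50 mM Tris/HCl pH 7.5, 5 mM MgCl2, 0.025% BSA. Compounds displaced [Eu]AngII over 120 min in the dark at room temperature or 37° C; filter-bound TRF read. Nonspecific binding with 10 μM angiotensin II; IC50 converted to Ki via Cheng-Prusoff, reported as pKi.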

IC50 (NEP enzyme) [nM]	Ki (human AT1 receptor) [nM]	SMILES
≤ 1000	≤ 100	CCCc1cc(C(=O)N[C@@H](CC(=O)O)Cc2ccccc2C(F)(F)F)nn1Cc1ccc(-c2ccccc2-c2nnn[nH]2)cc1F [Example 3-21, (R)-3-(1-((3-fluoro-2′-(1H-tetrazol-5-yl)biphenyl-4-yl)methyl)-5-propyl-1H-pyrazole-3-carboxamido)-4-(2-(trifluoromethyl)phenyl)butanoic acid]
≤ 10000	≤ 10	CCCc1cc(C(=O)N[C@@H](CC(=O)O)Cc2ccccc2F)nn1Cc1ccc(-c2ccccc2-c2nnn[nH]2)cc1 [Example 3-33, (R)-4-(2-Fluorophenyl)-3-({5-propyl-1-[2′-(1H-tetrazol-5-yl)biphenyl-4-ylmethyl]-1H-pyrazole-3-carbonyl}amino)butyric acid]
≤ 1000	≤ 10	CCCc1cc(C(=O)N[C@H](Cc2ccccc2)[C@@H](O)C(=O)O)nn1Cc1ccc(-c2ccccc2S(=O)(=O)NC(=O)c2ccccc2F)cc1 [Example 7-3, (2R,3R)-3-({1-[2′-(2-Fluorobenzoylsulfamoyl)biphenyl-4-ylmethyl]-5-propyl-1H-pyrazole-3-carbonyl}amino)-2-hydroxy-4-phenylbutyric acid]
≤ 100	≤ 10	CCCc1cc(C(=O)N[C@H](Cc2ccccc2)[C@@H](O)C(=O)O)nn1Cc1c(F)cc(-c2ccccc2S(=O)(=O)NC(C)=O)cc1F [Example 6-19, (2R,3R)-3-(1-((2′-(N-acetylsulfamoyl)-3,5-difluorobiphenyl-4-yl)methyl)-5-propyl-1H-pyrazole-3-carboxamido)-2-hydroxy-4-phenylbutanoic acid]
≤ 1000	≤ 10	CCCc1cc(C(=O)N[C@@H](CC(=O)O)Cc2ccccc2Cl)nn1Cc1cnc(-c2ccccc2-c2nnn[nH]2)cn1 [Example 17-2, (R)-4-(2-Chlorophenyl)-3-[(5-propyl-1-{5-[2-(1H-tetrazol-5-yl)phenyl]pyrazin-2-ylmethyl}-1H-pyrazole-3-carbonyl)amino]butyric acid]
≤ 100	≤ 10	CCCc1cc(C(=O)N[C@@H](CC(=O)O)Cc2cccc(F)c2)nn1Cc1ccc(-c2ccccc2-c2nnn[nH]2)nc1 [Example 14-12, (R)-4-(3-Fluorophenyl)-3-[(5-propyl-1-{6-[2-(1H-tetrazol-5-yl)phenyl]pyridin-3-ylmethyl}-1H-pyrazole-3-carbonyl)amino]butyric acid]
≤ 100	≤ 10	CCCc1cc(C(=O)N[C@@H](CS)Cc2ccccc2)nn1Cc1ccc(-c2ccccc2-c2nc(=O)o[nH]2)cc1 [Example 16-1, 1-[2′-(5-Oxo-2,5-dihydro-[1,2,4]oxadiazol-3-yl)biphenyl-4-ylmethyl]-5-propyl-1H-pyrazole-3-carboxylic acid ((R)-1-benzyl-2-mercaptoethyl)amide]
≤ 100	≤ 10	CCCc1cc(C(=O)N[C@@H](CS)Cc2ccccc2)nn1Cc1ccc(-c2ccccc2-c2nnn[nH]2)nc1 [Example 14-2, 5-Propyl-1-{6-[2-(1H-tetrazol-5-yl)phenyl]pyridin-3-ylmethyl}-1H-pyrazole-3-carboxylic acid ((R)-1-benzyl-2-mercaptoethyl)amide]
≤ 1000	≤ 100	CCCc1cc(C(=O)N[C@@H](CC(=O)O)Cc2ccccc2Cl)nn1Cc1cnc(-c2ccccc2-c2nnn[nH]2)nc1 [Example 18, (R)-4-(2-Chlorophenyl)-3-[(5-propyl-1-{2-[2-(1H-tetrazol-5-yl)phenyl]pyrimidin-5-ylmethyl}-1H-pyrazole-3-carbonyl)amino]butyric acid]
≤ 100	≤ 10	CCCc1cc(C(=O)N[C@H](Cc2ccccc2)[C@@H](O)C(=O)O)nn1Cc1ccc(-c2ccccc2S(=O)(=O)NC(=O)C2CC2)cc1 [Example 7-2, (2R,3R)-3-({1-[2′-(Cyclopropanecarbonylsulfamoyl)biphenyl-4-ylmethyl]-5-propyl-1H-pyrazole-3-carbonyl}amino)-2-hydroxy-4-phenylbutyric acid]
≤ 100	≤ 100	CCc1cc(C(=O)N[C@H](Cc2ccccc2)[C@@H](O)C(=O)O)nn1Cc1ccc(-c2ccccc2S(=O)(=O)NC(C)=O)cc1F [Example 6-10, (2R,3R)-3-{[1-(2′-Acetylsulfamoyl-3-fluoro-biphenyl-4-ylmethyl)-5-ethyl-1H-pyrazole-3-carbonyl]amino}-2-hydroxy-4-phenylbutyric acid]
≤ 10000	≤ 10	CCCc1cc(C(=O)N[C@H](Cc2ccccc2)[C@@H](O)C(=O)OC)nn1Cc1ccc(-c2ccccc2-c2nnn[nH]2)cc1 [Example 3-12, (2R,3R)-2-Hydroxy-4-phenyl-3-({5-propyl-1-[2′-(1H-tetrazol-5-yl)-biphenyl-4-ylmethyl]-1H-pyrazole-3-carbonyl}amino)butyric acid methyl ester]
≤ 100	≤ 10	CCCc1cc(C(=O)N[C@H](Cc2ccccc2)[C@@H](O)C(=O)O)nn1Cc1ccc(-c2ccccc2S(=O)(=O)NC(=O)CC)cc1 [Example 7-10, (2R,3R)-2-Hydroxy-4-phenyl-3-{[1-(2′-propionylsulfamoylbiphenyl-4-ylmethyl)-5-propyl-1H-pyrazole-3-carbonyl]amino}butyric acid]
≤ 1000	≤ 100	CCCc1cc(C(=O)N[C@@H](CC(=O)O)Cc2ccccc2Cl)nn1Cc1ccc(-c2ccccc2-c2nnn[nH]2)cn1 [Example 15-2, (R)-4-(2-Chlorophenyl)-3-[(5-propyl-1-{5-[2-(1H-tetrazol-5-yl)phenyl]pyridin-2-ylmethyl}-1H-pyrazole-3-carbonyl)amino]butyric acid]
≤ 1000	≤ 10	CCCc1cc(C(=O)N[C@@H](CC(=O)O)Cc2ccccc2)nn1Cc1cnc(-c2ccccc2S(=O)(=O)NC(C)=O)cn1 [Example 17-4, (R)-3-({1-[5-(2-Acetylsulfamoylphenyl)pyrazin-2-ylmethyl]-5-propyl-1H-pyrazole-3-carbonyl}amino)-4-phenylbutyric acid]
≤ 100	≤ 10	CCCc1cc(C(=O)N[C@H](Cc2ccccc2Cl)[C@@H](O)C(=O)O)nn1Cc1ccc(-c2ccccc2-c2nnn[nH]2)nc1 [Example 14-5, (2R,3R)-4-(2-Chlorophenyl)-2-hydroxy-3-[(5-propyl-1-{6-[2-(1H-tetrazol-5-yl)phenyl]pyridin-3-ylmethyl}-1H-pyrazole-3-carbonyl)amino]butyric acid]
≤ 1000	≤ 10	CCCc1cc(C(=O)N[C@H](CC(C)C)[C@@H](O)C(=O)O)nn1Cc1ccc(-c2ccccc2-c2nnn[nH]2)nc1 [Example 14-8, (2R,3R)-2-Hydroxy-5-methyl-3-[(5-propyl-1-{6-[2-(1H-tetrazol-5-yl)phenyl]pyridin-3-ylmethyl}-1H-pyrazole-3-carbonyl)amino]hexanoic acid]
